According to patent publication US20090099195A1 (ASTRAZENECA AB, priority 2007, published 2009):

Key:
[1] = target: T1, hP2X3 (human Purinergic P2X receptors subtype 3), clone B (Homo sapiens, UniProt P56373); assay: hP2X3 FLIPR calcium (Fluo-4) antagonist assay, clone B; conditions: Human P2X3 FLIPR Clone B IC50 (nM), RLE cells expressing hP2X3 clone B (NM_002559); agonist 500 nM α,β-methylene-ATP
T1 sequence (P56373 1-397): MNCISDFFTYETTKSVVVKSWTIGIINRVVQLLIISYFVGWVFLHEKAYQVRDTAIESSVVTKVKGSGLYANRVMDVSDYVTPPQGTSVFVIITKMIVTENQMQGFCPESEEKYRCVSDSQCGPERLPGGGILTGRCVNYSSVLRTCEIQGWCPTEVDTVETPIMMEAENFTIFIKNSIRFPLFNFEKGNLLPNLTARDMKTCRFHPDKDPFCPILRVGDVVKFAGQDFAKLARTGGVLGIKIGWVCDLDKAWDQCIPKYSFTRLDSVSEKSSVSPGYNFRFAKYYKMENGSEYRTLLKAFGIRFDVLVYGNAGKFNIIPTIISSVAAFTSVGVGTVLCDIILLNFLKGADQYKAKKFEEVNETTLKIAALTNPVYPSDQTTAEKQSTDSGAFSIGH

[2] = target: T2, hP2X3 (human Purinergic P2X receptors subtype 3), clone A (Homo sapiens, UniProt P56373); assay: hP2X3 FLIPR calcium (Fluo-4) antagonist assay, clone A; conditions: Human P2X3 FLIPR Clone A Mean IC50 (nM), RLE cells expressing hP2X3 clone A (AB016608); agonist 500 nM α,β-methylene-ATP
T2 sequence (P56373 1-397): T1 sequence (P56373 1-397)

[3] = target: T3, rat P2X2/3 (rat P2X3 co-expressed with rat P2X2) (Rattus norvegicus, UniProt P49653+P49654); assay: rat P2X2/3 FLIPR calcium (Fluo-4) antagonist assay; conditions: Rat P2X2/3 FLIPR Mean IC50 (nM), HEK-TREX cells, tetracycline-induced rat P2X3 with constitutive rat P2X2; agonist 500 nM α,β-methylene-ATP
T3 sequence (P49654 1-397): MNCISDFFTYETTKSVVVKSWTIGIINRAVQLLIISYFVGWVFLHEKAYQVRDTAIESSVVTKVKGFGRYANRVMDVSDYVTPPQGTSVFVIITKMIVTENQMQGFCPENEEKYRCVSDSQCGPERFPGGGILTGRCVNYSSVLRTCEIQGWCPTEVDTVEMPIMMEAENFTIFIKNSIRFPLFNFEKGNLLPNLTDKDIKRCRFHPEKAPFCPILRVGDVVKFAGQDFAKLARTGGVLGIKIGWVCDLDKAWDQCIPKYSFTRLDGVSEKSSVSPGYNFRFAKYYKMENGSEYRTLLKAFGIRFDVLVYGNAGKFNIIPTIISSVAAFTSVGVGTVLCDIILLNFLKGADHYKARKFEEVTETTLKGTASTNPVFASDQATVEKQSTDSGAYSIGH
T3 sequence (P49653 1-472): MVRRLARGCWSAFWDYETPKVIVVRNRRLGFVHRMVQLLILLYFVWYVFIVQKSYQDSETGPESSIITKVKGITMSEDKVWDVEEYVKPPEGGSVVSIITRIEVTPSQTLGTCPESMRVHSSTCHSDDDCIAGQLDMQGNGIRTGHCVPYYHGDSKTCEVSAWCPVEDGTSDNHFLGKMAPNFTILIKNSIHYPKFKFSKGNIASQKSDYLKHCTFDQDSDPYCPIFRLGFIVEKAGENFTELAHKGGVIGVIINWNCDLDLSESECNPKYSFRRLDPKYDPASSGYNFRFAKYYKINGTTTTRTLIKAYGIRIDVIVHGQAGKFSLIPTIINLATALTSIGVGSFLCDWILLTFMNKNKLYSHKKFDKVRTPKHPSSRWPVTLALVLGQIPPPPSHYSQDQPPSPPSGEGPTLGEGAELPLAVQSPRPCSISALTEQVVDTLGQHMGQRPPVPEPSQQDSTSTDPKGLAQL
Experimental: The assay used a calcium indicator dye (Fluo-4) that emits fluorescence, the intensity of which is related to the concentration of calcium that entered the cell when P2X3 was activated and the channel opened. Activation of hP2X3 or rat P2X3 and rat P2X2/3 (from the coexpression of rat P2X3 and rat P2×2) is elicited the by P2X3 agonist α,β methylene-ATP (Sigma M6517), and the resulting fluorescence is measured with a FLIPR II™ instrument (Molecular Devices). Compounds are tested for their ability to inhibit the agonist-induced fluorescent signal.
For the rat P2X2/3 HEK-TREX cells, induction of the rat P2X3 expression is used to generate the rat P2X2/3 channels in HEK-TREX cells and performed by addition of 1 μg/mL tetracycline (Invitrogen) 24 h prior to compounds testing to the HEK-TREX expressing the rat P2X2 constitutively. On the day of the experiment, the cells and test compounds are prepared as follows. […] After preparing the compounds, the medium is removed from the cell plates by inversion. A loading solution of 30 μL assay buffer containing 4 μM of the calcium indicator dye FLUO-4 AM (Molecular Probes F14202) is added to each well using a Multidrop (Labsystems). […] The incubation is terminated by washing the cells four times in assay buffer using a Skatron Embla (Molecular Devices), and 25 μL of assay buffer was left in each well. Cell plates are then transferred to the FLIPR. Experiments are initiated by measuring a baseline fluorescence reading for 10 seconds, followed by the addition of 12.5 μL of cpds and data sampling for a total 280 seconds. The experiments are terminated by addition of 12.5 μL of a reference agonist (500 nM α,β-methylene-ATP) or buffer, producing a final assay volume of 50 μL followed by data sampling for an additional 280 seconds.
In P2X3 antagonist experiments (human and rat assays) data are analysed as normalised maximal peak fluorescence monitored following agonist addition and calculated as percent of relative fluorescent counts from control agonist. The dose-response antagonist inhibition curves are analyzed in a 4-parameter sigmoidal fit using a non-linear curve-fitting program (XLfit version 5.0.6, ID Business Solutions Limited, Guildford, UK).

Row | Compound | IC50 [1] | IC50 [2] | IC50 [3]
1 | CC(C)N1Cc2c(NC(C)(C)Cc3ccc(Cl)cc3)nc(N3CCN(C)C(=O)C3)nc2C1=O [Example 69, 4-{[2-(4-chlorophenyl)-1,1-dimethylethyl]amino}-6-isopropyl-2-(4-methyl-3-oxopiperazin-1-yl)-5,6-dihydro-7H-pyrrolo[3,4-d]pyrimidin-7-one] | 140 nM | 86.2 nM | 1920 nM
2 | CCOc1ccc(C2CCCN2c2nc(N3CCN(C(C)=O)CC3)nc3c2CN(C(C)C)C3=O)cc1 (stereo not drawn) [Example 272, 4-(4-acetylpiperazin-1-yl)-2-[2-(4-ethoxyphenyl)pyrrolidin-1-yl]-8-propan-2-yl-3,5,8-triazabicyclo[4.3.0]nona-2,4,10-trien-7-one] | 270 nM |  | 12900 nM
3 | CCC(c1ccccc1)C1CCCN1c1nc(N2CCN(C(C)=O)CC2)nc2c1CN(C(C)C)C2=O (stereo not drawn) [Example 275, 4-(4-acetylpiperazin-1-yl)-2-[2-(1-phenylpropyl)pyrrolidin-1-yl]-8-propan-2-yl-3,5,8-triazabicyclo[4.3.0]nona-2,4,10-trien-7-one] | 760 nM |  | 10300 nM
4 | CC(=O)N1CCN(c2nc(NCc3ccc4ncccc4c3)c3c(n2)C(=O)N(C(C)C)C3)CC1 [Example 235, 2-(4-acetylpiperazin-1-yl)-6-isopropyl-4-(quinolin-6-ylmethylamino)-5H-pyrrolo[3,4-d]pyrimidin-7(6H)-one] | 83 nM |  | 13800 nM
5 | CC(=O)N1CCN(c2nc3c(c(N4CCCC4c4cnc5ccccc5c4)n2)CN(C(C)C)C3=O)CC1 (single isomer, unassigned) [Example 283, 4-(4-acetylpiperazin-1-yl)-8-propan-2-yl-2-(2-quinolin-3-ylpyrrolidin-1-yl)-3,5,8-triazabicyclo[4.3.0]nona-1,3,5-trien-7-one] | 87 nM |  | 253 nM
6 | CC(=O)N1CCN(c2nc(NCc3cnn(-c4ccccc4)c3)c3c(n2)C(=O)N(C(C)C)C3)CC1 [Example 146, 4-(4-acetylpiperazin-1-yl)-2-[(1-phenylpyrazol-4-yl)methylamino]-8-propan-2-yl-3,5,8-triazabicyclo[4.3.0]nona-1,3,5-trien-7-one] | 67 nM |  | 2440 nM
7 | CC(=O)N1CCN(c2nc3c(c(N4CCC[C@@H]4Cc4ccccc4)n2)CN(C(C)C)C3=O)CC1 [Example 116, 2-(4-acetylpiperazin-1-yl)-4-[(2R)-2-benzylpyrrolidin-1-yl]-6-isopropyl-5,6-dihydro-7H-pyrrolo[3,4-d]pyrimidin-7-one] | 57 nM |  | 10300 nM
8 | CC(=O)N1CCN(c2nc(N[C@@H](C)c3cnc4ccccc4c3)c3c(n2)C(=O)N(C(C)C)C3)CC1 (single isomer, unassigned) [Example 345] | 66 nM |  | 1910 nM
9 | CC(C)N1Cc2c(NC3c4cccnc4CCc4c(F)cccc43)nc(N(C)CCN(C)C)nc2C1=O (stereo not drawn) [Example 121, 2-[[2-(dimethylamino)ethyl](methyl)amino]-4-[(9-fluoro-10,11-dihydro-5H-benzo[4,5]cyclohepta[1,2-b]pyridin-5-yl)amino]-6-isopropyl-5,6-dihydro-7H-pyrrolo[3,4-d]pyrimidin-7-one] | 150 nM |  | 4580 nM
10 | CC(=O)N1CCN(c2nc(NC(C)(C)Cc3ccc(F)cc3)c3c(n2)C(=O)N(C(C)C)C3)CC1C (stereo not drawn) [Example 138, 2-(4-Acetyl-3-methyl-piperazin-1-yl)-4-[2-(4-fluoro-phenyl)-1,1-dimethyl-ethylamino]-6-isopropyl-5,6-dihydro-pyrrolo[3,4-d]pyrimidin-7-one] | 750 nM |  | 16200 nM
11 | CC(=O)N1CCN(c2nc(N[C@H](C)c3cnc4ccccc4c3)c3c(n2)C(=O)N(C(C)C)C3)CC1 (single isomer, unassigned) [Example 344] | 35 nM |  | 234 nM
12 | COc1ccc(CC2CCCN2c2nc(N3CCN(C(C)=O)CC3)nc3c2CN(C(C)C)C3=O)cc1 (stereo not drawn) [Example 286, 2-(4-acetylpiperazin-1-yl)-6-isopropyl-4-[2-[(4-methoxyphenyl)methyl]pyrrolidin-1-yl]-5H-pyrrolo[3,4-d]pyrimidin-7-one] | 67 nM |  | 3430 nM
13 | CC(C)N1Cc2c(NC(C)(C)Cc3ccc(F)cc3)nc(N3CCN4C(=O)CCC4C3)nc2C1=O (stereo not drawn) [Example 134, 4-(1-(4-Fluorophenyl)-2-methylpropan-2-ylamino)-6-isopropyl-2-(6-oxohexahydro[1,2-a]pyrazin-2(1H)-yl)-5H-pyrrolo[3,4-d]pyrimidin-7(6H)-one] | 490 nM |  | 49800 nM
14 | CC(=O)N1CCN(c2nc3c(c(N(Cc4cc5ccccc5cn4)CC4CC4)n2)CN(C(C)C)C3=O)CC1 [Example 253, 2-(4-acetylpiperazin-1-yl)-4-((cyclopropylmethyl)(isoquinolin-3-ylmethyl)amino)-6-isopropyl-5H-pyrrolo[3,4-d]pyrimidin-7(6H)-one] | 63 nM |  | 1110 nM
15 | CCC(C)N1Cc2c(NCc3cc4ccccc4cn3)nc(N3CCN(C(C)=O)CC3)nc2C1=O (single isomer, unassigned; (-)) [Example 311, (−)-2-(4-acetylpiperazin-1-yl)-4-(3-isoquinolylmethylamino)-6-sec-butyl-5H-pyrrolo[3,4-d]pyrimidin-7-one] | 28 nM |  | 1680 nM
16 | CC(=O)N1CCN(c2nc(NC(C)c3cnn(-c4ccccc4F)c3)c3c(n2)C(=O)N(C(C)C)C3)CC1 (stereo not drawn) [Example 149, 4-(4-acetylpiperazin-1-yl)-2-[1-[1-(2-fluorophenyl)pyrazol-4-yl]ethylamino]-8-propan-2-yl-3,5,8-triazabicyclo[4.3.0]nona-1,3,5-trien-7-one] | 260 nM |  | 5070 nM
